Assays:
[1] = test system: (5′CAG/3′GAC)x6; AAx6; AA × 6 (RNA, repeat) GGGAGAGGGUUUAAUCAGCAGCAGCAGCAGCAGUACGAAAGUACAGCAGCAGCAGCAGCAGAUUGGAUCCGCAAGG; assay: ITC; conditions: 0.1 M NaCl; 10 mM Na2HPO4, EDTA, pH 7.2; two-site fit; nanomolar range stated
[2] = test system: (5′CAG/3′GAC)x6; AAx6; AA × 6 (RNA, repeat) GGGAGAGGGUUUAAUCAGCAGCAGCAGCAGCAGUACGAAAGUACAGCAGCAGCAGCAGCAGAUUGGAUCCGCAAGG; assay: UV melting; conditions: Na+ 10 mM Na2HPO4 + 0.1 M NaCl (melting buffer not given; assumed same as CD/ITC buffer, which also has 50 mM EDTA); derived from two Tm (51.8, 57.9); D/N 2.0; per base
[3] = test system: (5′CAG/3′GAC)x6; AAx6; AA × 6 (RNA, repeat) GGGAGAGGGUUUAAUCAGCAGCAGCAGCAGCAGUACGAAAGUACAGCAGCAGCAGCAGCAGAUUGGAUCCGCAAGG; assay: fluorescence titration; conditions: room temperature; two-site fit
[4] = test system: 5′r(CCGCAGCGG)3′ (RNA, mismatch bulge abasic) CCGCAGCGG; assay: 1D and 2D NMR titration; conditions: 298 K; D/N 0.0 to 2.0

SMILES: Cc1cc2ccccc2nc1-c1ccccc1F
- binding [1]: yes
- dTm [2]: 6.1 °C
- binding [3]: yes
- binding [4]: yes

From publication PMC6856162 (2019)
